In US20100063020A1, “ORAL PHARMACEUTICAL FORMULATIONS AND METHODS FOR PRODUCING AND USING SAME” (priority 2004, published 2010):
Values joined by “and” are separate entries in the source; they are usually repeats but may differ in a detail not shown here. Equal entries are not always repeated. Where two headings read alike, the source gives them in different places.

How the values were obtained:
[1] = Solubility of 17-AAG in organic solvents suitable for oral administration; assay type: physicochemical
Text: In other embodiments, pharmaceutical acceptable co-solvents may be added to the phospholipid formulation to further enhance the solubility of the ansamycins. Many suitable co-solvents which are known in the art may be used. […] The resulted formulation can then be combined with any combinations of the general excipients: fillers, glidants, lubricants, disintegrants, binders, solubilizers to form the various oral compositions.

[2] = system: Caco-2 cell monolayer; assay: in vitro; assay type: in vitro ADME
Text: The permeability of the pharmaceutical active ingredient across the gastrointestinal membrane may be estimated from it permeability across a Caco-2 cell monolayer using standard techniques (e.g. Chong S et al. Pharmaceutical Research 1997 14(12):1835-1837). The reference is hereby expressly incorporated by reference.
Propranolol was included in each assay as a high permeability control compound.

[3] = Absolute oral bioavailability of 17-AAG lipid complex formulation in female rats; assay type: in vivo, Sprague-Dawley rats; settings: rat; for Apparent Absolute Bioavailability: oral 50 mg/kg vs intravenous 10 mg/kg
Description: Female Sprague-Dawley rats were administered a phospholipid complex formulation of the low melt form of 17-AAG by oral gavage or as intravenous infusion (tail vein). Blood samples were collected prior to dosing and up to 6 hrs post dosing.
% F=[(Oral AUC(0-6h)×I.V. Dose)/(I.V. AUC(0-6h)×Oral Dose)]*100.
(§1) Blood samples (n=11) were collected via the jugular vein catheter prior to dosing and up to 6 hrs post dosing. The blood was allowed to clot at room temperature for approximately 20 minutes and then placed on ice until centrifugation at 10,000×G for 10 minutes. Serum was collected into polypropylene tubes and frozen at −80° C. until analysis.

[4] = Oral bioavailability of prototype 17-AAG solid dosage form (capsule) in female rats; assay type: in vivo, Sprague-Dawley rats; settings: rat; for 17-AAG AUC(0-6)^b: oral capsule (17-AAG 33%, Neusilin 64%, SLS 3%), AUC estimated from 0 to 8 hrs; for 17-AAG Cmax / 17-AG Cmax / Apparent Absolute Bioavailability: oral capsule; for 17-AG Cmax: metabolite 17-AG; for Apparent Absolute Bioavailability: vs intravenous 10 mg/kg of earlier study
Description: See, Example 18. […] The average dose administered was 14.3 mg/kg.
as §1, with “The average dose administered was 14.3 mg/kg. Blood” for “Blood”, “8” for “6”
% F=[(Oral AUC(0-6h)×I.V. Dose)/(I.V. AUC(0-6h)×Oral Dose)]*100

[5] = Mouse serum pharmacokinetics of low melt 17-AAG in PEG-Tween; assay type: in vivo; settings: Balb/C mice, PO 40 mg/kg
Description: Six to 8 week old Balb/C mice were obtained from Harlan Sprague Dawley, (Indianapolis, Ind.). The mice were maintained in sterilized filter topped cages or ventilated caging in a room with a 12-h light/12-h dark photoperiod at temperature of 21-23° C. and a relative humidity of 50±5%. Irradiated pelleted food (Harlan Teklad #7912) and autoclaved deionized water were provided ad libitum. Experiments were carried out under institutional guidelines for the proper and humane use of animals in research established by the Institute for Laboratory Animal Research (ILAR).
Drug solutions were prepared and the concentrations were adjusted so that mice received a dose of 2-15 ml/kg administered intravenously (I.V.) as a bolus, orally, or intra-peritoneally (I.P.). In I.V. studies blood was sampled at 1, 5, 15, 30, 90 and 120 min. In oral and I.P. studies blood was sampled at 5, 15, 30, 90, 180 minutes and in some cases up to 240 minutes. Blood was collected in capillary tubes, transferred to microcentrifuge tubes, allowed to clot and centrifuged at 14,000 g for 10 minutes at 4° C. to obtain serum.

[6] = adult patients, cited from earlier work; for Cmax: read-out: Plasma Cmax
[7] = intravenous 10 mg/kg, individual animal, 10 mg/kg
[8] = intravenous 10 mg/kg, metabolite 17-AG, individual animal, 10 mg/kg
[9] = intravenous 10 mg/kg, metabolite 17-AG, mean n=3
[10] = oral 50 mg/kg, individual animal, 50 mg/kg
[11] = oral 50 mg/kg, metabolite 17-AG, individual animal, 50 mg/kg
[12] = 13.6-15.1 mg/kg, individual animal

C=CCNC1=C2C[C@@H](C)C[C@H](OC)[C@H](O)[C@@H](C)/C=C(\C)[C@H](OC(N)=O)[C@@H](OC)/C=C\C=C(/C)C(=O)NC(=CC1=O)C2=O [Compound 17-AAG, 17-allylamino-17-demethoxygeldanamycin]
Solubility ([1]; solvent Glycerol): 1.1 mg/mL | Solubility ([1]; solvent Glycofurol): 47.0 mg/mL | Solubility ([1]; solvent Labrafil (Apricot Kernol Oil PEG-6 Esters)): 2.4 mg/mL | Solubility ([1]; solvent Labrasol (PEG-8 Caprylic/Capric Glycerides)): 16.1 mg/mL | Solubility ([1]; solvent Polyethylene glycol 400): 12.9 mg/mL | Solubility ([1]; solvent Propylene Carbonate): 12.8 mg/mL | Solubility ([1]; solvent Solutol HS15): 12.4 mg/mL | Solubility ([1]; solvent Transcutol HP (Ethoxydiglycol)): 57.7 mg/mL | Solubility ([1]; solvent Tween 80): 33.8 mg/mL | permeability across the Caco-2 monolayer [2]: 19 ×10⁻⁶ cm/s | 17-AAG AUC(0-6) [3, 7]: 172 µg·min/mL and 161 µg·min/mL and 135 µg·min/mL | 17-AAG Cmax [3, 7]: 8700 ng/mL and 8000 ng/mL and 7000 ng/mL | 17-AAG AUC(0-6) ([3]; intravenous 10 mg/kg, mean n=3): 156 µg·min/mL | 17-AAG Cmax ([3]; intravenous 10 mg/kg, mean n=3): 7900 ng/mL | 17-AG AUC(0-6) [3, 8]: 17 µg·min/mL and 25 µg·min/mL and 37 µg·min/mL | 17-AG Cmax [3, 8]: 300 ng/mL and 200 ng/mL | 17-AG AUC(0-6) [3, 9]: 26 µg·min/mL | 17-AG Cmax [3, 9]: 200 ng/mL | Apparent Absolute Bioavailability ([3]; individual animal): 160% and 129% and 39% | Apparent Absolute Bioavailability ([3]; mean n=3): 109±63% | 17-AAG mean serum concentration six hours post oral dosing ([3]; oral 50 mg/kg, 6 h): 1.6 ± 0.8 µg/mL | 17-AG mean serum concentration six hours post oral dosing ([3]; oral 50 mg/kg, 6 h, metabolite 17-AG): 0.6 ± 0.1 µg/mL | 17-AAG AUC(0-6) [3, 10]: 1248 µg·min/mL and 1003 µg·min/mL and 305 µg·min/mL | 17-AAG Cmax [3, 10]: 5700 ng/mL and 4700 ng/mL and 1200 ng/mL | 17-AAG AUC(0-6) ([3]; oral 50 mg/kg, mean n=3): 852 µg·min/mL | 17-AAG Cmax ([3]; oral 50 mg/kg, mean n=3): 3900 ± 2400 ng/mL | 17-AG AUC(0-6) [3, 11]: 252 µg·min/mL and 238 µg·min/mL and 156 µg·min/mL | 17-AG Cmax [3, 11]: 1200 ng/mL and 900 ng/mL | 17-AG AUC(0-6) ([3]; oral 50 mg/kg, metabolite 17-AG, mean n=3): 215 µg·min/mL | 17-AG Cmax ([3]; oral 50 mg/kg, metabolite 17-AG, mean n=3, 50 mg/kg): 1000 ng/mL | 17-AAG AUC(0-6)^b [4, 12]: 32 µg·min/mL and 19 µg·min/mL and 34 µg·min/mL | 17-AAG AUC(0-6)^b ([4]; mean dose 14.3 mg/kg, mean n=3): 28 µg·min/mL | 17-AAG Cmax [4, 12]: 158 ng/mL and 117 ng/mL and 141 ng/mL | 17-AG Cmax [4, 12]: 70 ng/mL and 61 ng/mL and 52 ng/mL | Apparent Absolute Bioavailability [4, 12]: 15% and 8% and 16% | 17-AAG Cmax ([4]; mean dose 14.3 mg/kg, mean n=3): 139 ± 21 ng/mL | 17-AG Cmax ([4]; mean dose 14.3 mg/kg, mean n=3): 61 ± 9 ng/mL | Apparent Absolute Bioavailability ([4]; mean dose 14.3 mg/kg, mean n=3): 13±4% | 17-AAG AUCobs ([5]; low melt form): 433 µg·min/mL | 17-AAG Cmax ([5]; low melt form): 5000 ng/mL | 17-AG AUCobs ([5]; metabolite 17-AG): 163 µg·min/mL | 17-AG Cmax ([5]; metabolite 17-AG): 2400 ng/mL | % F ([5]; relative to IV 40 mg/kg): 25% | maximum tolerated dose (MTD) ([6]; daily 1-hour infusion for 5 days every three weeks): 40 mg/m^2 | clearance ([6]; mean±SD): 41.0 ± 13.5 L/h | terminal half-life ([6]; mean±SD): 2.5 ± 0.5 h | Cmax ([6]; 40 mg/m^2): 1860 ± 660 nM | Cmax ([6]; 56 mg/m^2): 3170 ± 1310 nM
